Source: PubChem BioAssay AID256 (DTP/NCI, 2004)
Several values for one entry are separate records, joined by “and”; a condition that tells them apart may be missing. Equal values may be shown once. Toxic doses and inconclusive results are not listed.

Tested on: CD2F1 mice, L1210 leukemia ip, survival T/C
Experiment: NCI In Vivo Anticancer Drug Screen. Data for tumor model L1210 Leukemia (intraperitoneal) in CD2F1 (CDF1) mice
Details: endpoint: mean survival time, higher = longer survival
How it was run: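 In this screen, transplantable tumors were grown in mice given either the compound or its vehicle. Results were expressed as the treated measurement relative to the control measurement.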

[1] = dose: 100.0 mg/kg/injection, schedule: Q04DX002 (ip), vehicle: saline with Tween-80
[2] = dose: 200.0 mg/kg/injection, schedule: Q04DX002 (ip), vehicle: saline with Tween-80
[3] = dose: 400.0 mg/kg/injection, schedule: Q04DX002 (ip), vehicle: saline with Tween-80
[4] = dose: 100.0 mg/kg/injection, schedule: Q04DX003 (ip), vehicle: saline with Tween-80
[5] = dose: 200.0 mg/kg/injection, schedule: Q04DX003 (ip), vehicle: saline with Tween-80
[6] = dose: 400.0 mg/kg/injection, schedule: Q04DX003 (ip), vehicle: saline with Tween-80
[7] = dose: 100.0 mg/kg/injection, schedule: Q01DX009 (ip), vehicle: saline with Tween-80
[8] = dose: 200.0 mg/kg/injection, schedule: Q01DX009 (ip), vehicle: saline with Tween-80
[9] = dose: 400.0 mg/kg/injection, schedule: Q01DX009 (ip), vehicle: saline with Tween-80

Cc1[nH]c2ccc(-c3ccccc3)cc2c1CC(=O)OC(C)C
T/C [1]: 97 % of control | T/C [2]: 117 % of control | T/C [3]: 105 % of control

O=NN(CCCl)C(=O)NC1CSCSC1
T/C (dose: 6.0 mg/kg/injection, schedule: Q01DX001 (ip), vehicle: saline with Tween-80): 164 % of control | T/C (dose: 9.0 mg/kg/injection, schedule: Q01DX001 (ip), vehicle: saline with Tween-80): 297 % of control | T/C (dose: 13.0 mg/kg/injection, schedule: Q01DX001 (ip), vehicle: saline with Tween-80): 331 % of control | T/C (dose: 20.0 mg/kg/injection, schedule: Q01DX001 (ip), vehicle: saline with Tween-80): 352 % of control | T/C (dose: 30.0 mg/kg/injection, schedule: Q01DX001 (ip), vehicle: saline with Tween-80): 344 % of control

Cc1cc(C(O)c2ccccn2)c2cc(Cl)cc(Cl)c2n1 (stereo not drawn)
T/C [1]: 97 % of control | T/C [2]: 102 % of control | T/C [3]: 97 % of control

CC(C)(C)OC(=O)Nc1cccc(O)c1
T/C [4]: 100 % of control | T/C [5]: 96 % of control | T/C [6]: 93 % of control

COC(=O)c1ccc(C)c(O)c1[N+](=O)[O-]
T/C [7]: 100 % of control | T/C [8]: 96 % of control | T/C [9]: 101 % of control

Cc1cccc(NC(=O)c2cccc(Cl)c2)c1C
T/C [7]: 91 % of control | T/C [4]: 96 % of control | T/C [8]: 96 % of control | T/C [5]: 96 % of control | T/C [9]: 91 % of control | T/C [6]: 96 % of control

S=C1SCCCS1
T/C (dose: 75.0 mg/kg/injection, schedule: Q04DX003 (ip), vehicle: Klucel (hydroxypropylcellulose) (HPC)): 103 % of control | T/C (dose: 150.0 mg/kg/injection, schedule: Q04DX003 (ip), vehicle: Klucel (hydroxypropylcellulose) (HPC)): 98 % of control | T/C (dose: 300.0 mg/kg/injection, schedule: Q04DX003 (ip), vehicle: Klucel (hydroxypropylcellulose) (HPC)): 98 % of control

O=C(N/N=C\c1cc(Cl)ccc1[N+](=O)[O-])c1ccccc1
T/C (dose: 100.0 mg/kg/injection, schedule: Q01DX009 (ip), vehicle: Klucel (hydroxypropylcellulose) (HPC)): 100 % of control | T/C (dose: 200.0 mg/kg/injection, schedule: Q01DX009 (ip), vehicle: Klucel (hydroxypropylcellulose) (HPC)): 91 % of control | T/C (dose: 400.0 mg/kg/injection, schedule: Q01DX009 (ip), vehicle: Klucel (hydroxypropylcellulose) (HPC)): 94 % of control

CC(=O)Nc1cccc(C(C)=O)c1[N+](=O)[O-]
T/C [7]: 102 % of control | T/C [8]: 97 % of control | T/C [9]: 93 % of control

CC(=O)OC1C2(CC3N4C(=O)C5(CO)SSC4(CC31O)C(=O)N5C)OC(C)C(C)(C)C2=O (stereo not drawn)
T/C (dose: 0.15 mg/kg/injection, schedule: Q01DX009 (ip), vehicle: saline): 101 % of control | T/C (dose: 0.16 mg/kg/injection, schedule: Q01DX009 (ip), vehicle: saline with Tween-80): 97 % of control | T/C (dose: 0.31 mg/kg/injection, schedule: Q01DX009 (ip), vehicle: saline with Tween-80): 101 % of control | T/C (dose: 0.31 mg/kg/injection, schedule: Q01DX009 (ip), vehicle: saline): 100 % of control | T/C (dose: 0.62 mg/kg/injection, schedule: Q01DX009 (ip), vehicle: saline): 100 % of control | T/C (dose: 0.63 mg/kg/injection, schedule: Q01DX009 (ip), vehicle: saline with Tween-80): 101 % of control | T/C (dose: 1.25 mg/kg/injection, schedule: Q01DX009 (ip), vehicle: saline): 120 % of control and 98 % of control and 100 % of control | T/C (dose: 2.5 mg/kg/injection, schedule: Q01DX009 (ip), vehicle: saline with Tween-80): 98 % of control | T/C (dose: 2.5 mg/kg/injection, schedule: Q01DX009 (ip), vehicle: saline): 107 % of control

CCCCOC(=O)CCl
T/C (dose: 100.0 mg/kg/injection, schedule: Q01DX001 (ip), vehicle: saline): 100 % of control | T/C (dose: 200.0 mg/kg/injection, schedule: Q01DX001 (ip), vehicle: saline): 94 % of control
